Reference: patent publication US7271239B2, “D-isomers of antimicrobial peptide” (The Research Foundation of State University of New York, priority 2004, dated 2007)

Tests used:
[1] = tested on: C. albicans strain DIS; type: in vivo, mice ICR strain
Description: A previously described protocol was adopted (14). Mice were immunosuppressed with two subcutaneous injections of prednisolone at a dose of 100 mg/kg body weight 1 day prior to and 3 days after the infection with C. albicans. Tetracycline hydrochloride in drinking water at a concentration of 0.83 mg/ml was given to mice beginning 1 day before infection. Mice were anesthetized by intramuscular injection with 60 μl of 2 mg/ml chlorpromazine chloride, using a dose of 10 mg/kg body weight of mice. While under anesthesia, a small cotton ball soaked in 0.1 ml aliquot of C. albicans cell suspension (2.5×10^6 cells) was used to swab the entire oral cavity of the anesthetized mice.
Visual evaluation was done by carefully extending the tongue of randomly picked mice using blunt-end forceps, while the mice were under isoflurane sedation. Presence of thick, white curd-like patches indicated candidal infection. At day 3 post-infection, all animals were examined for evidence oral candidal infection by microbiological evaluation. The entire oral cavity of anesthetized mice was swabbed using a sterile calcium alginate disposable swab (Fisher Scientific), dampened with sterile PBS. Cells were then released from the swab into 1 ml PBS. Serial 10-fold dilutions were plated on SDA plates supplemented with streptomycin (30 μg/ml). Plates were incubated for 24 h at 37° C. and yeast cell count expressed as log10 of cfu/ml.
Tongues from sacrificed animals were used for histological studies. They were fixed in 10% formalin and embedded in paraffin. Serial five-μm sections were cut from the paraffin block and stained with periodic acid-Schiff (PAS) reagent for detection of C. albicans.
Mice were randomly divided into various treatment groups with 8 mice per group. Antifungal agents were employed on an equimolar basis, and included amphotericin B (1.75%), clotrimazole (0.66%), MUC7 12-mer (RKSYKCLHKRCR—SEQ ID NO:1) (L; 3%), MUC7 12-mer (D; 3%), MUC7 12-mer (D; 3%) containing Na2EDTA (1 mM), MUC7 12-mer (L; 3%) containing protease inhibitor cocktail (PIC) (1%), and Hsn5 12-mer (AKRHHGYKRKFH—SEQ ID NO:2) (3%). They were all emulsified in Pluronic F127, (20% lipoil), a polymer of polyoxyethylene and polyoxypropylene (non-ionic surfactant). Animals were anesthetized using isoflurane; while sedated, about 30 to 40 μl of the antifungal emulsion was applied on the tongue and spread throughout oral cavity. The treated mice were under sedation for additional 5 min under isoflurane. Animals were not given access to food and water for 1 h following the application.
Fungal burden was re-evaluated quantitatively after 3 and 6 days of treatment, using the same technique as the one used for initial evaluation. Randomly picked mice from each group was subjected to histopathological evaluation, after 6 days of treatment. Blood from randomly sacrificed mice from each treatment group was analyzed for any changes in the serum liver (AST, ALT, ALP etc.) and kidney enzymes (BUN, glucose, creatinine etc) levels.
Statistical analysis was performed using a significance level set at 0.05 (α) and a significant group size (n=8). Initial infection and antifungal treatment efficacy were determined using analysis of variance (ANOVA), expressed as log10 cfu, and Scheffe's multiple comparison test was used to determine the differences between various treatment groups.

[2] = tested on: C. albicans DIS; assay: Killing assay in whole human saliva; conditions: saliva, no peptide
Description: FIG. 1. Candidacidal activity of MUC7 12-mer-L, MUC7 12-mer-D, Hsn5 12-mer, and Magainin-II in whole human saliva (WHS). Each peptide at final concentration of 25, 50, and 100 μM was incubated with C. albicans (DIS isolate at 1×10^5 cells/ml) and 20 μl of clarified or unclarified saliva (SL; hatched bars), saliva containing Protease inhibitor cocktail (PIC) (SL+PIC; filled bars), or saliva containing ethylenediamine tetraacetic acid (EDTA) (SL+EDTA; clear bars) at 37° C. for 1.5 h. At the end of incubation, the samples were diluted 20-fold and aliquots plated on SDA. The colony forming units (CFU) were counted after 24 h of incubation. The loss of C. albicans viability was determined by the equation (1−CFU of the test group/CFU of the control group)×100%. The data represent three individual trials, and in each trial the sample was duplicated; the error bars represent standard deviation.
FIG. 4. […] Stimulated whole saliva was collected from 5 healthy subjects. Peptides (50 μM) were incubated with C. albicans cells (1×10^5) in the each individual saliva containing PIC (SL+PIC) at 37° C. for 1.5 hr and the loss of the cell viability was determined. Values represent the mean±S.D. (n=5).
Killing assays in saliva. Unclarified saliva (unstimulated whole saliva) was collected from five healthy individuals during the fasting. Clarified saliva was obtained by passing the unclarified saliva through the 0.2 μm pore size sterile syringe filter (VWR scientific products, West Chester, Pa.). Candidacidal activity assays were performed as described previously (4), except the phosphate buffer was substituted with saliva. […] Saliva without peptides was a blank control. After incubation at 37° C. for 1.5 h, the reactions were diluted 20-fold in PB and aliquots (50 μl, ˜120 cells) of each sample were plated on SDA. The plates were incubated at 37° C. for 1 day aerobically and the number of colony-forming units (CFUs) was counted. Percentage of killing was calculated as (1−amount of viable cells in the test group)/(amount of viable cells in the control group)×100%.

[3] = Experimental study I, topical oral application

| SMILES | Log10 cfu/ml (Mean + S.D.), Initial infection ([1]; Experimental study I, day 3 post-infection, before treatment (baseline)) [Log10 cfu/ml] | Log10 cfu/ml (Mean + S.D.), 3-days treatment [1, 3] [Log10 cfu/ml] | Log10 cfu/ml (Mean + S.D.), 6-days treatment [1, 3] [Log10 cfu/ml] | histopathological finding in tongue sections (C. albicans, PAS staining) ([1]; end of treatment) | effect of additive alone on C. albicans cell viability [2] |
| --- | --- | --- | --- | --- | --- |
| Clc1ccccc1C(c1ccccc1)(c1ccccc1)n1ccnc1 [Clotrimazole, 1-[o-chloro-a,a-diphenylbenzyl]-imidazole] | 4.50 ± 0.20 | 1.58 ± 1.36 | 0.53 ± 0.99 | healthy tissue and absence of visible microorganisms |  |
| O=C(O)CN(CCN(CC(=O)O)CC(=O)O)CC(=O)O [EDTA, ethylenediamine tetraacetic acid] |  |  |  |  | very little or no effect |
